Legend:
[1] = tested on: surinam grass (Brachiaria decumbens); assay: Test E pre-/postemergence: surinam grass; format: in vivo; details: Preemergence, scale 0 to 100
Source text: Seeds of plant species selected from corn (Zea mays), soybean (Glycine max), velvetleaf (Abutilon theophrasti), lambsquarters (Chenopodium album), poinsettia, wild (wild poinsettia, Euphorbia heterophylla), pigweed, palmer (palmer pigweed, Amaranthus palmeri), waterhemp (common waterhemp, Amaranthus rudis), smartweed (ladysthumb smartweed, Polygonum persicaria), surinam grass (Brachiaria decumbens), crabgrass, large (large crabgrass, Digitaria sanguinalis), crabgrass, Brazil (Brazilian crabgrass, Digitaria horizontalis), panicum, fall (fall panicum, Panicum dichotomiflorum), foxtail, giant (giant foxtail, Setaria faberii), foxtail, green (green foxtail, Setaria viridis), goosegrass (Eleusine indica), johnsongrass (Sorghum halepense), ragweed (common ragweed, Ambrosia elation), barnyardgrass (Echinochloa crus-galli), sandbur (southern sandbur, Cenchrus echinatus), arrowleaf sida (Sida rhombifolia), ryegrass, Italian (Italian ryegrass, Lolium multiflorum), dayflower, (VA) (Virginia dayflower, Commelina virginica), field bindweed (Convolvulus arvensis), cocklebur (common cocklebur, Xanthium strumarium), morningglory (Ipomoea coccinea), nightshade (eastern black nightshade, Solanum ptycanthum), kochia (Kochia scoparia), nutsedge, yellow (yellow nutsedge, Cyperus esculentus) and beggarticks (hairy beggarticks, Bidens pilosa) were planted into a silt loam soil and treated preemergence with test chemicals formulated in a non-phytotoxic solvent mixture which included a surfactant. At the same time, plants selected from these crop and weed species were planted in pots containing a growing medium comprising spaghnum peat moss, vermiculite, wetting agent and starter nutrients and treated with postemergence applications of some of the test chemicals formulated in the same manner. Plants ranged in height from 2 to 18 cm for postemergence treatments (1- to 4-leaf stage).
(§1) Treated plants and controls were maintained in a greenhouse for 14 to 21 days, after which time all species were compared to controls and visually evaluated. Plant response ratings, summarized in Table E, are based on a scale of 0 to 100 where 0 is no effect and 100 is complete control. A dash (-) response means no test result.

[2] = tested on: nightshade (eastern black nightshade, Solanum ptycanthum); assay: Test F pre-/postemergence: nightshade; format: in vivo; details: Preemergence
Source text: (§2) Seeds of plant species selected from corn (Zea mays), soybean (Glycine max), velvetleaf (Abutilon theophrasti), lambsquarters (Chenopodium album), poinsettia, wild (wild poinsettia, Euphorbia heterophylla), pigweed, palmer (palmer pigweed, Amaranthus palmeri), waterhemp (common waterhemp, Amaranthus rudis), surinam grass (Brachiaria decumbens), crabgrass, Brazil (Brazilian crabgrass, Digitaria horizontalis), panicum, fall (fall panicum Panicum dichotomiflorum), crabgrass, large (large crabgrass, Digitaria sanguinalis), foxtail, giant (giant foxtail, Setaria faberii), foxtail, green (green foxtail Setaria viridis), goosegrass (Eleusine indica), ragweed (common ragweed, Ambrosia elatior), barnyardgrass (Echinochloa crus-galli), sandbur (southern sandbur, Cenchrus echinatus), arrowleaf sida (Sida rhombifolia), ryegrass, Italian (Italian ryegrass, Lolium multiflorum), dayflower, VA (Virginia (VA) dayflower, Commelina virginica), field bindweed (Convolvulus arvensis), cocklebur (common cocklebur, Xanthium strumarium), morningglory (Ipomoea coccinea), nightshade (eastern black nightshade, Solanum ptycanthum), kochia (Kochia scoparia), nutsedge, yellow (yellow nutsedge, Cyperus esculentus), johnsongrass (Sorghum halepense), smartweed (ladysthumb smartweed, Polygonum persicaria), and beggarticks (hairy beggarticks, Bidens pilosa), were planted into a silt loam soil and treated preemergence with test chemicals formulated in a non-phytotoxic solvent mixture which included a surfactant. At the same time, plants selected from these crop and weed species and also pigweed (Amaranthus retroflexus), waterhemp_RES1 (ALS/Triazine resistant common waterhemp, Amaranthus rudis) and waterhemp_RES2 (ALS/HPPD resistant common waterhemp, Amaranthus rudis) were planted in pots containing a planting medium comprising spaghnum peat moss, vermiculite, wetting agent and starter nutrients treated with postemergence applications of some of the test chemicals formulated in the same manner. Plants ranged in height from 2 to 18 cm for postemergence treatments (1- to 4-leaf stage).
as §1

[3] = tested on: johnsongrass (Sorghum halepense); assay: Test F pre-/postemergence: johnsongrass; format: in vivo; details: Preemergence
Source text: as §2, §1

[4] = tested on: Oilseed Rape; assay: Test C postemergence: oilseed rape; format: in vivo, Brassica napus
Source text: (§3) Seeds of plant species selected from blackgrass (Alopecurus myosuroides), bromegrass, downy (downy bromegrass, Bromus tectorum), foxtail, green (green foxtail, Setaria viridis), ryegrass, Italian (Italian ryegrass, Lolium multiflorum), winter wheat (Triticum aestivum), wild oat (Avena fatua), galium (catchweed bedstraw, Galium aparine), bermudagrass (Cynodon dactylon), surinam grass (Brachiaria decumbens), cocklebur (common cocklebur, Xanthium strumarium), corn (Zea mays), large crabgrass (Digitaria sanguinalis), woolly cupgrass (Eriochloa villosa), foxtail, giant (giant foxtail, Setaria faberii), goosegrass (Eleusine indica), johnsongrass (Sorghum halepense), kochia (Kochia scoparia), lambsquarters (Chenopodium album), morningglory (Ipomoea coccinea), nightshade (eastern black nightshade, Solanum ptycanthum), nutsedge, yellow (yellow nutsedge, Cyperus esculentus), pigweed (Amaranthus retroflexus), ragweed (common ragweed, Ambrosia elation), soybean (Glycine max), common (oilseed) sunflower (Helianthus annuus), Russian thistle (Salsola kali) and velvetleaf (Abutilon theophrasti) were planted into a blend of loam soil and sand and treated preemergence with test chemicals formulated in a non-phytotoxic solvent mixture which included a surfactant.
(§4) At the same time, plants selected from these crop and weed species and also barley (winter barley, Hordeum vulgare), canarygrass (Phalaris minor), chickweed (common chickweed, Stellaria media) windgrass (Apera spica-venti) and deadnettle (henbit deadnettle, Lamium amplexicaule) were planted in pots containing Redi-Earth® planting medium (Scotts Company, 14111 Scottslawn Road, Marysville, Ohio 43041) comprising spaghnum peat moss, vermiculite, wetting agent and starter nutrients and treated with postemergence applications of test chemicals formulated in the same manner. Plants ranged in height from 2 to 18 cm (1- to 4-leaf stage) for postemergence treatments.
as §1, with “13” for “14”, “15” for “21”, “C,” for “E,”

[5] = tested on: Oilseed Rape; assay: Test C pre-/postemergence: oilseed rape; format: in vivo
Source text: as §3, §4
as §1, with “13” for “14”, “15” for “21”, “C,” for “E,”

[6] = tested on: Barnyardgrass; assay: Test C postemergence: barnyardgrass; format: in vivo, Echinochloa crus-galli
Source text: as §4
as §1, with “13” for “14”, “15” for “21”, “C,” for “E,”

[7] = tested on: Oilseed Rape; assay: Test C postemergence: oilseed rape; format: in vivo
Source text: as §4
as §1, with “13” for “14”, “15” for “21”, “C,” for “E,”

[8] = 16 g ai/ha, scale 0 to 100 (0 no effect, 100 complete control)
[9] = 31 g ai/ha, scale 0 to 100 (0 no effect, 100 complete control)
[10] = 125 g ai/ha, scale 0 to 100, 0 no effect, 100 complete control
[11] = Preemergence, 250 g ai/ha, scale 0 to 100, 0 no effect, 100 complete control
[12] = 62 g ai/ha, scale 0 to 100 (0 no effect, 100 complete control)
[13] = 4 g ai/ha, scale 0 to 100, 0 no effect, 100 complete control
[14] = 8 g ai/ha, scale 0 to 100, 0 no effect, 100 complete control
[15] = Postemergence, 31 g ai/ha, scale 0 to 100 (0 no effect, 100 complete control)

Row | SMILES | Plant response rating: Surinam Grass ([1]; 16 g ai/ha) | Plant response rating: Surinam Grass ([1]; 31 g ai/ha) | Plant response rating: Surinam Grass ([1]; 62 g ai/ha) | Plant response rating: Surinam Grass ([1]; 125 g ai/ha) | Plant response rating, Nightshade [2, 8] | Plant response rating, Johnsongrass [3, 8] | Plant response rating, Johnsongrass [3, 9] | Plant response rating, Oilseed Rape [4, 10] | Plant response rating, Oilseed Rape [5, 11] | Plant response rating, Barnyardgrass [6, 9] | Plant response rating, Barnyardgrass [6, 12] | Plant response rating, Barnyardgrass ([6]; 250 g ai/ha, scale 0 to 100) | Plant response rating, Oilseed Rape [7, 12] | Plant response rating, Oilseed Rape ([7]; 250 g ai/ha, scale 0 to 100) | further results
1 | Cc1nn(-c2ccc(F)cc2)nc1Cc1ccnc(C(F)(F)F)c1 [Compound 16, 4-[[2-(4-fluorophenyl)-5-methyl-2H-1,2,3-triazol-4-yl]methyl]-2-(trifluoromethyl)pyridine] | 0 | 0 | 30 | 35 |  |  |  |  |  |  |  |  |  |  | Plant response rating: Surinam Grass ([1]; 8 g ai/ha): 0
2 | Cc1nn(-c2ccc(C(F)(F)F)cc2)nc1Cc1ccnc(C(F)(F)F)c1 [Compound 47, 4-[[5-methyl-2-[4-(trifluoromethyl)phenyl]-2H-1,2,3-triazol-4-yl]methyl]-2-(trifluoromethyl)pyridine] | 15 | 20 | 25 | 40 |  |  |  |  |  |  |  |  |  |  | Plant response rating: Surinam Grass ([1]; 250 g ai/ha): 65
3 | Cc1nn(-c2ccc(F)cc2)nc1Oc1ccnc(C(F)(F)F)c1 [Compound 129, 4-[[2-(4-fluorophenyl)-5-methyl-2H-1,2,3-triazol-4-yl]oxy]-2-(trifluoromethyl)pyridine] | 0 | 15 | 15 | 60 |  |  |  |  |  |  |  |  |  |  | Plant response rating: Surinam Grass ([1]; 8 g ai/ha): 0
4 | Fc1ccc(-n2nc(Cc3ccnc(C(F)(F)F)c3)c(OCC(F)(F)F)n2)cc1 [Compound 142] |  |  |  |  | 65 | 0 | 5 |  |  |  |  |  |  |  | Plant response rating, Nightshade [2, 9]: 80; Plant response rating, Nightshade ([2]; 125 g ai/ha, scale 0 to 100): 98; Plant response rating, Johnsongrass ([3]; 125 g ai/ha, scale 0 to 100): 30
5 | CCCc1nn(-c2ccc(F)cc2)nc1Cc1ccnc(C(F)(F)F)c1 [Compound 153] |  |  |  |  | 50 | 0 | 10 | 90 | 98 | 20 | 35 | 75 | 90 | 95 | Plant response rating, Oilseed Rape [7, 9]: 90; Plant response rating, Nightshade [2, 9]: 50; Plant response rating, Nightshade ([2]; 125 g ai/ha, scale 0 to 100): 100; Plant response rating, Nightshade ([2]; 250 g ai/ha, scale 0 to 100): 100; Plant response rating, Johnsongrass ([3]; 62 g ai/ha, scale 0 to 100): 50; Plant response rating, Johnsongrass ([3]; 125 g ai/ha, scale 0 to 100): 100; Plant response rating, Johnsongrass ([3]; 250 g ai/ha, scale 0 to 100): 100
6 | Cc1nn(-c2ccc(C(F)(F)F)c(F)c2)nc1Cc1ccnc(C(F)(F)F)c1 [Compound 162] |  |  |  |  | 5 | 20 | 20 | 90 | 100 | 20 | 65 | 95 | 90 | 95 | Plant response rating, Oilseed Rape [7, 9]: 90; Plant response rating, Nightshade [2, 13]: 0; Plant response rating, Nightshade [2, 14]: 0; Plant response rating, Johnsongrass [3, 13]: 20; Plant response rating, Johnsongrass [3, 14]: 20; Plant response rating, Johnsongrass ([3]; 62 g ai/ha, scale 0 to 100): 20
7 | CCc1nn(-c2ccc(F)cc2)nc1Oc1ccnc(C(F)(F)F)c1 [Compound 166] |  |  |  |  |  |  |  | 5 | 100 | 10 | 25 | 60 | 5 | 40 | Plant response rating, Oilseed Rape [5, 15]: 5
8 | CCCc1nn(-c2ccc(C(F)(F)F)c(F)c2)nc1Oc1ccnc(C(F)(F)F)c1 [Compound 185] |  |  |  |  |  |  |  | 50 | 100 | 30 | 35 | 80 | 50 |  | Plant response rating, Oilseed Rape ([4]; 250 g ai/ha, scale 0 to 100 (0 no effect, 100 complete control)): 55; Plant response rating, Oilseed Rape [5, 15]: 10
